In ChEMBL document CHEMBL4304773, “Nitroimidazole-containing compounds and their antibacterial and antitubercular activities” (2019) one finds MIC data, which are given here for 14 molecules.

SMILES strings stand for the structures. Converted amounts (≈) assume the structure as drawn.

Assay type in all cases: functional
Test [1] concerns Pseudomonas aeruginosa. Briefly: Antibacterial activity against Pseudomonas aeruginosa after 24 hrs.
The subject of test [2] is Escherichia coli. Nature of the test: Antibacterial activity against Escherichia coli ATCC 25922 after 24 hrs. The following applies: ATCC 25922, 24 h.
The subject of test [3] is Staphylococcus aureus. Nature of the test: Antibacterial activity against Staphylococcus aureus ATCC 29213 after 24 hrs. The following applies: ATCC 29213, 24 h.
The subject of test [4] is Staphylococcus aureus. Nature of the test: Antibacterial activity against Staphylococcus aureus ATCC 25923 after 24 hrs. The note with it: ATCC 25923, 24 h.
In the next test the test system is Enterococcus faecalis. Nature of the test: Antibacterial activity against Enterococcus faecalis after 24 hrs.
Another test concerns Klebsiella pneumoniae. Nature of the test: Antibacterial activity against Klebsiella pneumoniae after 24 hrs.
The subject of test [5] is Pseudomonas aeruginosa. Nature of the test: Antibacterial activity against Pseudomonas aeruginosa ATCC 27853 after 24 hrs. The note with it: ATCC 27853, 24 h.
Test [6] deals with Staphylococcus aureus. Nature of the test: Antibacterial activity against methicillin-resistant Staphylococcus aureus after 24 hrs.
A further test relates to Candida albicans. Nature of the test: Antifungal activity against Candida albicans.
For test [7], the system named is Escherichia coli. Briefly: Antibacterial activity against Escherichia coli.
In test [8] the test system is Staphylococcus aureus. Nature of the test: Antibacterial activity against Staphylococcus aureus.
The subject of the next test is Bacillus subtilis. Briefly: Antibacterial activity against Bacillus subtilis.
For test [9], the system named is Pseudomonas aeruginosa. Nature of the test: Antibacterial activity against Pseudomonas aeruginosa.

Usually MIC stands for the smallest concentration in the dilution series that meets the test's criterion for growth inhibition. Lower therefore signals inhibition by little substance. Turning to `COc1cc(/C=C(\C#N)n2cc([N+](=O)[O-])nc2C)c2c(c1OCCO)CN1CCc3cc4c(cc3C1C2)OCO4` (stereo unspecified), the MIC against Pseudomonas aeruginosa [1], against Escherichia coli [2], in the test with Staphylococcus aureus [3], with Staphylococcus aureus [4], against Enterococcus faecalis and against Klebsiella pneumoniae was 3 to 1020 µM (≈ 1.64 to 557 µg/mL) throughout. The MIC with Pseudomonas aeruginosa [5] and with Staphylococcus aureus [6] was 3 to 1020 µM (≈ 1.64 to 557 µg/mL) in each case.

`CCCCCCOc1c(OC)cc(/C=C(\C#N)n2cc([N+](=O)[O-])nc2C)c2c1CN1CCc3cc4c(cc3C1C2)OCO4` (stereo unspecified): the minimum inhibitory concentration (MIC) with Pseudomonas aeruginosa [1], with Escherichia coli [2], in the test with Staphylococcus aureus [3], in the test with Staphylococcus aureus [4], in the test with Enterococcus faecalis and against Klebsiella pneumoniae was 3 to 1020 µM (≈ 1.76 to 598 µg/mL) throughout. For the same molecule, the MIC with Pseudomonas aeruginosa [5] and with Staphylococcus aureus [6] was 3 to 1020 µM (≈ 1.76 to 598 µg/mL) each time.

In the case of `CCCCOc1c(OC)cc(/C=C(\C#N)n2cc([N+](=O)[O-])nc2C)c2c1CN1CCc3cc4c(cc3C1C2)OCO4` (stereo unspecified), the MIC in the test with Pseudomonas aeruginosa [1], against Escherichia coli [2], with Staphylococcus aureus [3], against Staphylococcus aureus [4], against Enterococcus faecalis and in the test with Klebsiella pneumoniae was 3 to 1020 µM (≈ 1.67 to 569 µg/mL) throughout. The minimal inhibitory concentration (MIC) with Pseudomonas aeruginosa [5] and in the test on Staphylococcus aureus [6] was 3 to 1020 µM (≈ 1.67 to 569 µg/mL) throughout.

Regarding `CC(=O)N1N=C(Cn2c([N+](=O)[O-])cnc2C)OC1(C)c1ccc([N+](=O)[O-])cc1` (stereo unspecified), the MIC with Candida albicans, with Escherichia coli [7], in the test with Staphylococcus aureus [8], with Bacillus subtilis and with Pseudomonas aeruginosa [9] was 0.25 to 0.5 µg/mL (≈ 0.644 to 1.29 µM) throughout.

For the molecule `NC(=O)N/N=C/c1ccc([N+](=O)[O-])o1` [NITROFURAZONE], the MIC in the test on Candida albicans, in the test with Escherichia coli [7], against Staphylococcus aureus [8], against Bacillus subtilis and with Pseudomonas aeruginosa [9] was 0.25 to 0.5 µg/mL (≈ 1.26 to 2.52 µM) throughout.

In the case of `COc1cc(/C=C(\C#N)n2cc([N+](=O)[O-])nc2C)c2c(c1OCc1cccc(Cl)c1)CN1CCc3cc4c(cc3C1C2)OCO4` (stereo unspecified), the MIC in the test on Pseudomonas aeruginosa [1], with Escherichia coli [2], against Staphylococcus aureus [3], in the test with Staphylococcus aureus [4], in the test on Enterococcus faecalis and with Klebsiella pneumoniae was 3 to 1020 µM (≈ 1.88 to 639 µg/mL) in each case. Moreover, the MIC against Pseudomonas aeruginosa [5] and in the test on Staphylococcus aureus [6] was 3 to 1020 µM (≈ 1.88 to 639 µg/mL) each time.

Consider `COc1ccccc1Cc1nnc(Cn2c([N+](=O)[O-])cnc2C)o1`, for which the MIC against Escherichia coli [7], against Staphylococcus aureus [8], with Bacillus subtilis and against Pseudomonas aeruginosa [9] was 3.12 to 4.56 µg/mL (≈ 9.47 to 13.8 µM) throughout.

Consider `CC(=O)N1N=C(Cn2c([N+](=O)[O-])cnc2C)OC1c1ccc(C)cc1` (stereo unspecified), for which the MIC in the test on Candida albicans, against Escherichia coli [7], against Staphylococcus aureus [8], in the test with Bacillus subtilis and with Pseudomonas aeruginosa [9] was 0.25 to 0.5 µg/mL (≈ 0.728 to 1.46 µM) throughout.

For `COc1ccc2cc3[n+](cc2c1OC)CCc1cc2c(cc1-3)OCO2` [BERBERINE], the MIC in the test with Pseudomonas aeruginosa [1], against Escherichia coli [2], against Staphylococcus aureus [3], in the test with Staphylococcus aureus [4], against Enterococcus faecalis and with Klebsiella pneumoniae was 11 to 688 µM in each case. In addition, the minimum inhibitory concentration (MIC) against Pseudomonas aeruginosa [5] and against Staphylococcus aureus [6] was 11 to 688 µM each time.

For `COc1cc(/C=C(\C#N)n2cc([N+](=O)[O-])nc2C)c2c(c1OCc1ccccc1Cl)CN1CCc3cc4c(cc3C1C2)OCO4` (stereo unspecified), the MIC in the test on Pseudomonas aeruginosa [1], with Escherichia coli [2], against Staphylococcus aureus [3], against Staphylococcus aureus [4], in the test with Enterococcus faecalis and against Klebsiella pneumoniae was 3 to 1020 µM (≈ 1.88 to 639 µg/mL) in each case. In addition, the MIC in the test on Pseudomonas aeruginosa [5] and against Staphylococcus aureus [6] was 3 to 1020 µM (≈ 1.88 to 639 µg/mL) each time.

Take `COc1cc(/C=C(\C#N)n2cc([N+](=O)[O-])nc2C)c2c(c1OCc1ccc(Cl)cc1Cl)CN1CCc3cc4c(cc3C1C2)OCO4` (stereo unspecified): the minimal inhibitory concentration (MIC) with Pseudomonas aeruginosa [1], in the test with Escherichia coli [2], with Staphylococcus aureus [3], against Staphylococcus aureus [4], against Enterococcus faecalis and in the test on Klebsiella pneumoniae was 3 to 1020 µM (≈ 1.98 to 674 µg/mL) in each case. Also, the MIC with Pseudomonas aeruginosa [5] and with Staphylococcus aureus [6] was 3 to 1020 µM (≈ 1.98 to 674 µg/mL) each time.

For the molecule `CC(=O)N1N=C(Cn2c([N+](=O)[O-])cnc2C)OC1(C)c1ccc(Br)cc1` (stereo unspecified), the MIC with Candida albicans, against Escherichia coli [7], against Staphylococcus aureus [8], in the test on Bacillus subtilis and in the test on Pseudomonas aeruginosa [9] was 0.25 to 0.5 µg/mL (≈ 0.592 to 1.18 µM) throughout.

Regarding `C=CCOc1c(OC)cc(/C=C(\C#N)n2cc([N+](=O)[O-])nc2C)c2c1CN1CCc3cc4c(cc3C1C2)OCO4` (stereo unspecified), the MIC with Pseudomonas aeruginosa [1], in the test with Escherichia coli [2], against Staphylococcus aureus [3], against Staphylococcus aureus [4], with Enterococcus faecalis and against Klebsiella pneumoniae was 3 to 1020 µM (≈ 1.62 to 553 µg/mL) throughout. In addition, the MIC against Pseudomonas aeruginosa [5] and in the test with Staphylococcus aureus [6] was 3 to 1020 µM (≈ 1.62 to 553 µg/mL) in each case.

In the case of `CCCCCCCCOc1c(OC)cc(/C=C(\C#N)n2cc([N+](=O)[O-])nc2C)c2c1CN1CCc3cc4c(cc3C1C2)OCO4` (stereo unspecified), the MIC against Pseudomonas aeruginosa [1], against Escherichia coli [2], in the test on Staphylococcus aureus [3], with Staphylococcus aureus [4], in the test on Enterococcus faecalis and in the test with Klebsiella pneumoniae was 3 to 1020 µM (≈ 1.84 to 627 µg/mL) throughout. Moreover, the MIC with Pseudomonas aeruginosa [5] and against Staphylococcus aureus [6] was 3 to 1020 µM (≈ 1.84 to 627 µg/mL) throughout.
